Measurements: patent US20240158446A1, “CYCLIC COMPOUND HAVING SELECTIVE INHIBITORY ACTION ON KRAS OVER HRAS AND NRAS” (CHUGAI SEIYAKU KABUSHIKI KAISHA, priority 2021, published 2024)
Read-outs that look alike come from different tables or passages of the source.

Legend:
[1] = target: GDP-bound KRAS wild-type protein (Homo sapiens, UniProt P01116); experiment: Binding to KRAS by surface plasmon resonance (SPR), Single Cycle Kinetics; conditions: GDP-bound KRAS wild-type protein, read-out: KRAS KD
[2] = target: GDP-bound NRAS wild-type protein (Homo sapiens, UniProt P01111); experiment: Binding to NRAS by surface plasmon resonance (SPR), Single Cycle Kinetics; conditions: for NRAS/KRAS (ratio of KD value for NRAS to KD value for KRAS): SPR, GDP-bound NRAS wild-type protein vs GDP-bound KRAS wild-type protein
[3] = target: GDP-bound HRAS wild-type protein (Homo sapiens, UniProt P01112); experiment: Binding to HRAS by surface plasmon resonance (SPR), Single Cycle Kinetics; conditions: for HRAS/KRAS (ratio of KD value for HRAS to KD value for KRAS): SPR, GDP-bound HRAS wild-type protein vs GDP-bound KRAS wild-type protein
[4] = system: human lung cancer strain NCI-H441;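 also: cell proliferation inhibition after four days measured by CellTiter-Glo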
[5] = SPR, Single Cycle Kinetics, 1:1 binding model

Sequence of GDP-bound KRAS wild-type protein (P01116 whole entry): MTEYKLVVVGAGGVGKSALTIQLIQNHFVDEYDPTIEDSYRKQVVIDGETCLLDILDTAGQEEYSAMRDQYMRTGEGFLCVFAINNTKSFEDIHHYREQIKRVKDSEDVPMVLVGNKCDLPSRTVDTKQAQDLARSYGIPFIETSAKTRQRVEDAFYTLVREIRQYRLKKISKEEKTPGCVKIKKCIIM
Sequence of GDP-bound HRAS wild-type protein (P01112 whole entry): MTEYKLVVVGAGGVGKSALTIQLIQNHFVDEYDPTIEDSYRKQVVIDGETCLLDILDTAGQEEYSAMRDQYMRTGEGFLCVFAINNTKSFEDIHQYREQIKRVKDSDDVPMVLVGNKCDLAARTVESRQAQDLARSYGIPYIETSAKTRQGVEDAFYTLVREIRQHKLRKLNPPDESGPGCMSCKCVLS
Sequence of GDP-bound NRAS wild-type protein (P01111 whole entry): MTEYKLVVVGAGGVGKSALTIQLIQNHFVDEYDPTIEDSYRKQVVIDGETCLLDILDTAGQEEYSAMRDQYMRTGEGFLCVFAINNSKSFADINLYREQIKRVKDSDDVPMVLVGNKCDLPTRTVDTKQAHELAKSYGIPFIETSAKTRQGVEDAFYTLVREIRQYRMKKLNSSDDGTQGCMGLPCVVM

Structure (SMILES)	Kd ([1]; SPR, Single Cycle Kinetics) [nM]	NRAS/KRAS (ratio of KD value for NRAS to KD value for KRAS) [2]	HRAS/KRAS (ratio of KD value for HRAS to KD value for KRAS) [3]	IC50 [4] [nM]	Kd [1, 5] [nM]	NRAS/KRAS (ratio of KD value for NRAS to KD value for KRAS) ([2]; KD ratio class)	HRAS/KRAS (ratio of KD value for HRAS to KD value for KRAS) ([3]; KD ratio class)	Kd ([1]; SPR Single Cycle Kinetics, 1:1 binding model) [nM]	NRAS/KRAS (ratio of KD value with respect to GDP-bound NRAS wild-type protein to KD value with respect to KRAS) ([2]; SPR KD ratio NRAS/KRAS, class symbols)	HRAS/KRAS (ratio of KD value with respect to GDP-bound HRAS wild-type protein to KD value with respect to KRAS) ([3]; SPR KD ratio HRAS/KRAS, class symbols)
CCCOC[C@H]1C(=O)N[C@@H]([C@@H](C)CC)C(=O)N(C)CC(=O)N(C)[C@H]2C/C=C\CCN(C2=O)[C@@H](Cc2ccc(C)cc2)C(=O)N(C)CC(=O)N[C@@H](CCc2ccc(C(F)(F)F)c(OC)c2)C(=O)N2C[C@H](OCC)C[C@H]2C(=O)NC2(CC(C)(C)C2)C(=O)N(C)[C@@H](C2CCCC2)C(=O)N(C)[C@H](C(=O)N(C)C)CC(=O)N1C [PP2449]	0.061	A (a compound having 10 or more and less than 20 is denoted as A)	A (a compound having 10 or more and less than 20 is denoted as A)	7.8	–	–	–	–	–	–
CCC(CC)[C@H]1C(=O)N(C)[C@H](C(=O)N(C)C)CC(=O)N(C)[C@@H](CC2CC2)C(=O)N[C@@H]([C@@H](C)CC)C(=O)N(C)CC(=O)N(C)[C@H]2C/C=C\CCN(C2=O)[C@@H](CC2CCC(F)(F)CC2)C(=O)N(C)CC(=O)N[C@@H](CCc2cc(F)c(C(F)(F)F)c(F)c2)C(=O)N2C[C@@H](C)C[C@H]2C(=O)NC2(CC(C)(C)C2)C(=O)N1C [PP2500]	1.7	A (a compound having 10 or more and less than 20 is denoted as A)	A (a compound having 10 or more and less than 20 is denoted as A)	125	–	–	–	–	–	–
CC[C@H](C)[C@@H]1NC(=O)[C@H](COC)N(C)C(=O)C[C@@H](C(=O)N(CC)CC)N(C)C(=O)[C@H](C2CCCC2)N(C)C(=O)C2(CC(C)(C)C2)NC(=O)[C@@H]2C[C@H](C)CN2C(=O)[C@H](CCc2ccc(C(F)(F)F)c(OC)c2)NC(=O)CN(C)C(=O)[C@H](Cc2ccc(C)cc2)N2CC/C=C\C[C@@H](C2=O)N(C)C(=O)CN(C)C1=O [PP2441]	0.29	AA (a compound having 20 or more is denoted as AA)	A (a compound having 10 or more and less than 20 is denoted as A)	22.9	–	–	–	–	–	–
CCO[C@@H]1C[C@H]2C(=O)NC3(CCCC3)C(=O)N(C)[C@@H](C3CCCC3)C(=O)N(C)[C@H](C(=O)N(C)C)CC(=O)N(C)[C@@H](CC)C(=O)N[C@@H]([C@@H](C)CC)C(=O)N(C)CC(=O)N(C)[C@H]3C[C@@H](C)[C@@H](C)CN(C3=O)[C@@H](Cc3ccc(C(F)(F)F)cc3)C(=O)N(C)CC(=O)N[C@@H](CCc3cc(F)c(C(F)(F)F)c(F)c3)C(=O)N2C1 [PP1352]	–	–	–	4.6	0.024	A (a compound having 10 or more and less than 20 is denoted as A)	B (a compound having 3 or more and less than 10 is denoted as B)	–	–	–
CCO[C@@H]1C[C@H]2C(=O)NC3(CCC3)C(=O)N(C)[C@@H](C3CCCC3)C(=O)N(C)[C@H](C(=O)N(C)C)CC(=O)N(C)[C@@H](CC(C)C)C(=O)N[C@@H]([C@@H](C)CC)C(=O)N(C)CC(=O)N(C)[C@H]3C/C=C\CCN(C3=O)[C@@H](Cc3ccc(C(F)(F)F)cc3)C(=O)N(C)CC(=O)N[C@@H](CCc3ccc(C(F)(F)F)c(OC)c3)C(=O)N2C1 [PP1245, (2S,8S,12R,14S,20S,23S,27S,30S,36S,38Z)-20-cyclopentyl-12-ethoxy-27-isobutyl-8-[2-[3-methoxy-4-(trifluoromethyl)phenyl]ethyl]-N,N,4,19,22,26,32,35-octamethyl-30-[(1S)-1-methylpropyl]-3,6,9,15,18,21,25,28,31,34,42-undecaoxo-2-[[4-(trifluoromethyl)phenyl]methyl]spiro[1,4,7,10,16,19,22,26,29,32,35-undecazatricyclo[34.5.1.0^10,14]dotetracont-38-ene-17,1′-cyclobutane]-23-carboxamide]	–	–	–	3.7	0.06	A (a compound having 10 or more and less than 20 is denoted as A)	B (a compound having 3 or more and less than 10 is denoted as B)	–	–	–
CCO[C@@H]1C[C@H]2C(=O)NC3(CCC3)C(=O)N(C)[C@@H](C(CC)CC)C(=O)N(C)[C@H](C(=O)N(C)C)CC(=O)N(C)[C@@H](CC3CCCC3)C(=O)N[C@@H]([C@@H](C)CC)C(=O)N(C)CC(=O)N(C)[C@H]3C/C=C\CCN(C3=O)[C@@H](Cc3ccc(C(F)(F)F)cc3)C(=O)N(C)CC(=O)N[C@@H](CCc3ccc(C(F)(F)F)c(OC)c3)C(=O)N2C1 [PP1212]	–	–	–	35.6	0.28	AA (a compound having 20 or more is denoted as AA)	A (a compound having 10 or more and less than 20 is denoted as A)	–	–	–
CCOC[C@H]1C(=O)N[C@@H]([C@@H](C)CC)C(=O)N(C)CC(=O)N(C)[C@H]2C/C=C\CCN(C2=O)[C@@H](Cc2ccc(C)cc2)C(=O)N(C)CC(=O)N[C@@H](CCc2ccc(C(F)(F)F)c(Cl)c2)C(=O)N2C[C@H](OCC)C[C@H]2C(=O)NC2(CC(C)(C)C2)C(=O)N(C)[C@@H](C2CCCC2)C(=O)N(C)[C@H](C(=O)N(C)CC)CC(=O)N1C [PP2401]	0.12	A (a compound having 10 or more and less than 20 is denoted as A)	A (a compound having 10 or more and less than 20 is denoted as A)	5.3	–	–	–	–	–	–
CCC[C@H]1C(=O)N[C@@H]([C@@H](C)CC)C(=O)N(C2CC2)CC(=O)N(C)[C@H]2C/C=C\CCN(C2=O)[C@@H](CC2CCCCC2)C(=O)N(C)CC(=O)N[C@@H](CCc2ccc(C(F)(F)F)c(OC)c2)C(=O)N2C[C@@H](C)C[C@H]2C(=O)N(C)C2(CCC2)C(=O)N(C)[C@@H](C2CCCC2)C(=O)N(C)[C@H](C(=O)N(C)C)CC(=O)N1C [PP2372]	0.79	A (a compound having 10 or more and less than 20 is denoted as A)	B (a compound having 3 or more and less than 10 is denoted as B)	3.3	–	–	–	–	–	–
CC[C@H](C)[C@@H]1NC(=O)[C@H](CC)N(C)C(=O)C[C@@H](C(=O)N(C)C)N(C)C(=O)[C@H](C2CCCC2)N(C)C(=O)C2(CCC2)NC(=O)[C@@H]2CCCN2C(=O)[C@H](CCc2cc(F)c(C(F)(F)F)c(F)c2)NC(=O)CN(C)C(=O)[C@H](Cc2ccc(C(F)(F)F)cc2)N2CC/C=C\C[C@@H](C2=O)N(C)C(=O)CN(C)C1=O [PP1135, (2S,8S,14S,20S,23S,27S,30S,36S,38Z)-20-cyclopentyl-8-[2-[3,5-difluoro-4-(trifluoromethyl)phenyl]ethyl]-27-ethyl-N,N,4,19,22,26,32,35-octamethyl-30-[(1S)-1-methylpropyl]-3,6,9,15,18,21,25,28,31,34,42-undecaoxo-2-[[4-(trifluoromethyl)phenyl]methyl]spiro[1,4,7,10,16,19,22,26,29,32,35-undecazatricyclo[34.5.1.0^10,14]dotetracont-38-ene-17,1′-cyclobutane]-23-carboxamide]	0.094	A (a compound having 10 or more and less than 20 is denoted as A)	A (a compound having 10 or more and less than 20 is denoted as A)	43.9	–	–	–	–	–	–
CCC[C@H]1C(=O)N[C@@H]([C@@H](C)CC)C(=O)N2C[C@@H](OC)C[C@H]2C(=O)N(C)[C@H]2C/C=C\CCN(C2=O)[C@@H](Cc2ccc(C)cc2)C(=O)N(C)CC(=O)N[C@@H](CCc2cc(F)c(C(F)(F)F)c(F)c2)C(=O)N2C[C@H](OCC)C[C@H]2C(=O)NC2(CCC2)C(=O)N(C)[C@@H](C2CCCC2)C(=O)N(C)[C@H](C(=O)N(C)C)CC(=O)N1C [PP2550]	–	–	–	38.5	–	–	–	0.29	A (a compound having 10 or more and less than 20 is denoted as A)	B (a compound having 3 or more and less than 10 is denoted as B)
CC[C@H](C)[C@@H]1NC(=O)[C@H](CC(C)C)N(C)C(=O)C[C@@H](C(=O)N2CCOCC2)N(C)C(=O)[C@H](C2CCCC2)N(C)C(=O)C2(CCC2)NC(=O)[C@@H]2CCCN2C(=O)[C@H](CCc2ccc(C(F)(F)F)c(Cl)c2)NC(=O)CN(C)C(=O)[C@H](Cc2ccc(C(F)(F)F)cc2)N2C[C@H](C)CC[C@@H](C2=O)N(C)C(=O)[C@@H]2CCN2C1=O (stereo in doubt) [PP1339]	–	–	–	42.1	0.65	A (a compound having 10 or more and less than 20 is denoted as A)	B (a compound having 3 or more and less than 10 is denoted as B)	–	–	–
CCO[C@@H]1C[C@H]2C(=O)NC3(CCC3)C(=O)N(C)[C@@H](C3CCCC3)C(=O)N(C)[C@H](C(=O)N(C)C)CC(=O)N(C)[C@@H](CC3CC3)C(=O)N[C@@H]([C@@H](C)CC)C(=O)N(C)CC(=O)N(C)[C@H]3C/C=C\CCN(C3=O)[C@@H](Cc3ccc(C(F)(F)F)cc3)C(=O)N(C)CC(=O)N[C@@H](CCc3ccc(Cl)c(Cl)c3)C(=O)N2C1 [PP1253, (2S,8S,12R,14S,20S,23S,27S,30S,36S,38Z)-20-cyclopentyl-27-(cyclopropylmethyl)-8-[2-(3,4-dichlorophenyl)ethyl]-12-ethoxy-N,N,4,19,22,26,32,35-octamethyl-30-[(1S)-1-methylpropyl]-3,6,9,15,18,21,25,28,31,34,42-undecaoxo-2-[[4-(trifluoromethyl)phenyl]methyl]spiro[1,4,7,10,16,19,22,26,29,32,35-undecazatricyclo[34.5.1.0^10,14]dotetracont-38-ene-17,1′-cyclobutane]-23-carboxamide]	–	–	–	22.2	0.2	A (a compound having 10 or more and less than 20 is denoted as A)	A (a compound having 10 or more and less than 20 is denoted as A)	–	–	–
